Among the data in patent publication US8003785B2 (Takeda Pharmaceutical Company Limited, priority 2008, dated 2011) are IC50 values, retold here.

The assay concerns the target T1, PLK1 (Homo sapiens, UniProt P53350).
T1 construct: Full-length, active GST-PLK1 is purified from Sf9 insect cells; made in house; host or cells: Sf9 insect cells
Briefly: Biochemical Characterization Assay: HTRF kinase assay, GST-PLK1 phosphorylation of GST-p53. Conditions: GST-PLK1, GST-p53 substrate. As to the method:
Biochemical Characterization Assay
Full-length, active GST-PLK1 is purified from Sf9 insect cells, and full-length GST-p53 is purified from E. coli. Anti-phospho p53 antibody is from Cell Signaling Technology. Europium-conjugated anti-rabbit antibody is from PerkinElmer Life and Analytical Sciences. APC-conjugated anti-GST antibody is from Prozyme.
Six microliters of GST-PLK1 (3 ug/mL) in Kinase Assay Buffer are then added and the solution incubated at 37° C. for 35 minutes. Six microliters of solution containing 43 mM EDTA to stop the reaction and a 1:600 dilution of anti-phospho-p53 antibody in 20 mM HEPES pH 7, 50 mM NaCl, and 0.5 mg/mL BSA (Antibody Binding Buffer) are added and the solution incubated at 37° C. for 30 minutes. […] The HTRF signal is read on an Envision reader from PerkinElmer Life and Analytical Sciences.
On the technique in general: In TR-FRET formats the signal depends on donor and acceptor labels being close together.

The structures appear in SMILES notation.

T1 sequence (P53350 whole entry): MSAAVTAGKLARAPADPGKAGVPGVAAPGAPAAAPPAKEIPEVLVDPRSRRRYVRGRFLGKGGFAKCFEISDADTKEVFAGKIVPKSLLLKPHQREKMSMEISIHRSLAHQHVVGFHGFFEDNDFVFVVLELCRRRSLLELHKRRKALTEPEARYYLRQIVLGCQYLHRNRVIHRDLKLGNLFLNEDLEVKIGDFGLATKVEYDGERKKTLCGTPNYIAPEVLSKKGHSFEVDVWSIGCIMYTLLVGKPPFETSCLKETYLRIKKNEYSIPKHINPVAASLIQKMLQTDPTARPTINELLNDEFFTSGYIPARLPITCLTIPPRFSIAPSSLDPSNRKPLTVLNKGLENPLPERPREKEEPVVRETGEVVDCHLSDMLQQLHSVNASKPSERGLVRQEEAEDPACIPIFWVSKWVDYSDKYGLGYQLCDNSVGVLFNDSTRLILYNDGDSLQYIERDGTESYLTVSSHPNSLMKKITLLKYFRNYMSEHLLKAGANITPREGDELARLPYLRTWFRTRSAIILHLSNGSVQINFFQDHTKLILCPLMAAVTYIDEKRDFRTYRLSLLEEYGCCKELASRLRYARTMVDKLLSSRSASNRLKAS

In general, IC50 refers to the concentration needed to halve the response being measured. The low end stands for higher potency, the high end for lower potency. On to `COc1cc(C(=O)NC2CCN(C)CC2)ccc1Nc1ncc2c(n1)N(C1CCC1)CC(F)(F)C(=O)N2C` [Example I-4, 4-(9-cyclobutyl-7,7-difluoro-5-methyl-6-oxo-6,7,8,9-tetrahydro-5H-pyrimido[4,5-b][1,4]diazepin-2-ylamino)-3-methoxy-N-(1-methyl-piperidin-4-yl)-benzamide], for which, where the note is “ATP”, the half-maximal inhibitory concentration (IC50) was in the range of 0.001 to 0.05 µM. In turn, `COc1cc(C(=O)NCC2CCNC2)ccc1Nc1ncc2c(n1)N(C1CCCC1)CC(F)(F)C(=O)N2C` (stereo not shown) [Example I-93, 4-(9-cyclopentyl-7,7-difluoro-5-methyl-6-oxo-6,7,8,9-tetrahydro-5H-pyrimido[4,5b][1,4]diazepin-2-ylamino)-3-methoxy-N-pyrrolidin-3-ylmethyl-benzamide] came in with an IC50 (ATP) of 0.001 to 0.05 µM. In turn, `CNC(=O)c1ccc(Nc2ncc3c(n2)N(C2CCCC2)CC(F)(F)C(=O)N3C)c(F)c1F` [Example I-245] had an IC50 of 0.001 to 0.05 µM. For `CCN1CCC(NC(=O)c2ccc(Nc3ncc4c(n3)N(C3CCCCC3)CC(F)(F)C(=O)N4C)c(OC)c2)CC1` [Example I-255, 4-(9-cyclohexyl-7,7-difluoro-5-methyl-6-oxo-6,7,8,9-tetrahydro-5H-pyrimido[4,5-b][1,4]diazepin-2-ylamino)-N-(1-ethyl-piperidin-4-yl)-3-methoxy-benzamide], the IC50 was in the range of 0.001 to 0.05 µM. On to `COc1cc(C(=O)NCCCN(C)C)ccc1Nc1ncc2c(n1)N(CCCc1ccccc1)CC(F)(F)C(=O)N2C` [Example I-285, 4-[7,7-difluoro-5-methyl-6-oxo-9-(3-phenyl-propyl)-6,7,8,9-tetrahydro-5H-pyrimido[4,5-b][1,4]diazepin-2-ylamino]-N-(3-dimethylamino-propyl)-3-methoxy-benzamide], for which the IC50 lay in the range of 0.001 to 0.05 µM. For the setting “ATP”, `COc1cc(C(=O)NCCC2CCCN2C)ccc1Nc1ncc2c(n1)N(C1CCCC1)CC(F)(F)C(=O)N2C` (stereo not shown) [Example I-112, 4-(9-cyclopentyl-7,7-difluoro-5-methyl-6-oxo-6,7,8,9-tetrahydro-5H-pyrimido[4,5-b][1,4]diazepin-2-ylamino)-3-methoxy-N-[2-(1-methyl-pyrrolidin-2-yl)-ethyl]-benzamide] displayed a concentration for half-maximal inhibition (IC50) of 0.001 to 0.05 µM. For `COc1cc(C(=O)O)ccc1Nc1ncc2c(n1)N(CCc1ccccc1)CC(F)(F)C(=O)N2C` [Example I-275, 4-(7,7-difluoro-5-methyl-6-oxo-9-phenethyl-6,7,8,9-tetrahydro-5H-pyrimido[4,5-b][1,4]diazepin-2-ylamino)-3-methoxy-benzoic acid], the half-maximal inhibitory concentration (IC50) lay within 0.051 to 0.5 µM. For `CN(C)CCCNC(=O)c1ccc(Nc2ncc3c(n2)N(C2CCCC2)CC(F)(F)C(=O)N3C)c(C(F)(F)F)c1` [Example I-209, 4-(9-cyclopentyl-7,7-difluoro-5-methyl-6-oxo-6,7,8,9-tetrahydro-5H-pyrimido[4,5-b][1,4]diazepin-2-ylamino)-N-(3-dimethylamino-propyl)-3-trifluoromethyl-benzamide], the IC50 is 0.001 to 0.05 µM. As for `CCc1cc(C(=O)NCCN(C)C)ccc1Nc1ncc2c(n1)N(C1CCCC1)CC(F)(F)C(=O)N2C` [Example I-198, 4-(9-cyclopentyl-7,7-difluoro-5-methyl-6-oxo-6,7,8,9-tetrahydro-5H-pyrimido[4,5-b][1,4]diazepin-2-ylamino)-N-(2-dimethylamino-ethyl)-3-ethyl-benzamide], the IC50 is 0.001 to 0.05 µM. With `CNC(=O)c1cc(OC)c(Nc2ncc3c(n2)N(C2CCCC2)CC(F)(F)C(=O)N3C)cc1F` [Example I-171, 4-(9-cyclopentyl-7,7-difluoro-5-methyl-6-oxo-6,7,8,9-tetrahydro-5H-pyrimido[4,5-b][1,4]diazepin-2-ylamino)-2-fluoro-5-methoxy-N-methyl-benzamide], the 50% inhibitory concentration (IC50) is 0.001 to 0.05 µM.

With `COc1cc(C(=O)NC2CCOCC2)ccc1Nc1ncc2c(n1)N(C(C)C)CC(F)(F)C(=O)N2C` [Example I-297, 4-(7,7-difluoro-9-isopropyl-5-methyl-6-oxo-6,7,8,9-tetrahydro-5H-pyrimido[4,5-b][1,4]diazepin-2-ylamino)-3-methoxy-N-(tetrahydro-pyran-4-yl)-benzamide], the IC50 is 0.001 to 0.05 µM. With `CCCN1C(=O)C(F)(F)CN(C2CCCC2)c2nc(Nc3ccc(C(N)=O)cc3OC)ncc21` [Example I-163, 4-(9-cyclopentyl-7,7-difluoro-6-oxo-5-propyl-6,7,8,9-tetrahydro-5H-pyrimido[4,5-b][1,4]diazepin-2-ylamino)-3-methoxy-benzamide], the IC50 was 0.5 to 5 µM. Same read-out and setting: with `CN1CCC(NC(=O)c2cc(F)c(Nc3ncc4c(n3)N(C3CCCC3)CC(F)(F)C(=O)N4C)cc2F)CC1` [Example I-233, 4-(9-cyclopentyl-7,7-difluoro-5-methyl-6-oxo-6,7,8,9-tetrahydro-5H-pyrimido[4,5-b][1,4]diazepin-2-ylamino)-2,5-difluoro-N-(1-methyl-piperidin-4-yl)-benzamide] the figure was 0.001 to 0.05 µM; with `CN1CCC(NC(=O)c2ccc(Nc3ncc4c(n3)N(C3CCCC3)CC(F)(F)C(=O)N4C)c(F)c2F)CC1` [Example I-243], 0.001 to 0.05 µM. For `COc1cc(C(=O)NCCN)ccc1Nc1ncc2c(n1)N(C1CCCC1)CC(F)(F)C(=O)N2C` [Example I-48, N-(2-amino-ethyl)-4-(9-cyclopentyl-7,7-difluoro-5-methyl-6-oxo-6,7,8,9-tetrahydro-5H-pyrimido[4,5-b][1,4]diazepin-2-ylamino)-3-methoxy-benzamide], for the setting “ATP”, the IC50 lay in the range of 0.001 to 0.05 µM. Under “ATP”, `CCN1C(=O)C(F)(F)CN(C2CCCC2)c2nc(Nc3ccc(C(=O)NC4CCOCC4)cc3)ncc21` [Example I-143, 4-(9-cyclopentyl-5-ethyl-7,7-difluoro-6-oxo-6,7,8,9-tetrahydro-5H-pyrimido[4,5-b][1,4]diazepin-2-ylamino)-N-(tetrahydro-pyran-4-yl)-benzamide] gave an IC50 of 0.5 to 5 µM. With `CCc1cc(C(=O)NC2CCOCC2)ccc1Nc1ncc2c(n1)N(C1CCCC1)CC(F)(F)C(=O)N2C` [Example I-197, 4-(9-cyclopentyl-7,7-difluoro-5-methyl-6-oxo-6,7,8,9-tetrahydro-5H-pyrimido[4,5-b][1,4]diazepin-2-ylamino)-3-ethyl-N-(tetrahydro-pyran-4-yl)-benzamide], the 50% inhibitory concentration (IC50) lay in the range of 0.001 to 0.05 µM.

Regarding `COc1cc(C(=O)NC2CN3CCC2CC3)ccc1Nc1ncc2c(n1)N(C1CCCC1)CC(F)(F)C(=O)N2C` [Example I-106, N—(R)-1-aza-bicyclo[2.2.2]oct-3-yl-4-(9-cyclopentyl-7,7-difluoro-5-methyl-6-oxo-6,7,8,9-tetrahydro-5H-pyrimido[4,5-b][1,4]diazepin-2-ylamino)-3-methoxy-benzamide], the IC50 (ATP) was 0.001 to 0.05 µM. Same read-out and setting: with `COc1cc(C(=O)NCCCN2CCCC2=O)ccc1Nc1ncc2c(n1)N(C1CCCC1)CC(F)(F)C(=O)N2C` [Example I-113, 4-(9-cyclopentyl-7,7-difluoro-5-methyl-6-oxo-6,7,8,9-tetrahydro-5H-pyrimido[4,5-b][1,4]diazepin-2-ylamino)-3-methoxy-N-[3-(2-oxo-pyrrolidin-1-yl)-propyl]-benzamide] the figure was 0.001 to 0.05 µM. For `COc1cc(C(=O)NC2CCNCC2)ccc1Nc1ncc2c(n1)N(C1CCC1)CC(F)(F)C(=O)N2C` [Example I-5, 4-(9-cyclobutyl-7,7-difluoro-5-methyl-6-oxo-6,7,8,9-tetrahydro-5H-pyrimido[4,5-b][1,4]diazepin-2-ylamino)-3-methoxy-N-piperidin-4-yl-benzamide], for the setting “ATP”, the IC50 fell in the range of 0.001 to 0.05 µM.

Turning to `CCN1C(=O)C(F)(F)CN(C2CCCC2)c2nc(Nc3ccc(C(=O)NCCCN(C)C)cc3)ncc21` [Example I-142, 4-(9-cyclopentyl-5-ethyl-7,7-difluoro-6-oxo-6,7,8,9-tetrahydro-5H-pyrimido[4,5-b][1,4]diazepin-2-yl-amino)-N-(3-dimethyl-amino-propyl)-benzamide], the IC50 (ATP) fell in the range of 0.5 to 5 µM.

With `CCCN1C(=O)C(F)(F)CN(C2CCCC2)c2nc(Nc3ccc(C(=O)NCCCN(C)C)cc3OC)ncc21` [Example I-166, 4-(9-cyclopentyl-5-propyl-7,7-difluoro-6-oxo-6,7,8,9-tetra-hydro-5H-pyrimido[4,5-b][1,4]diazepin-2-ylamino)-N-(3-dimethylamino-propyl)-3-methoxy-benzamide], the IC50 lay in the range of 0.051 to 0.5 µM.

Compound `COc1cc(C(=O)NCCN2CCOCC2)ccc1Nc1ncc2c(n1)N(C1CCCC1)CC(F)(F)C(=O)N2C` [Example I-117, 4-(9-cyclopentyl-7,7-difluoro-5-methyl-6-oxo-6,7,8,9-tetrahydro-5H-pyrimido[4,5-b][1,4]diazepin-2-ylamino)-3-methoxy-N-(2-morpholin-4-yl-ethyl)-benzamide] registered an IC50 (ATP) of 0.001 to 0.05 µM. `COc1cc(C(=O)N[C@@H]2CN3CCC2CC3)ccc1Nc1ncc2c(n1)N(C1CCCC1)CC(F)(F)C(=O)N2C` [Example I-107, N—(S)-1-aza-bicyclo[2.2.2]oct-3-yl-4-(9-cyclopentyl-7,7-difluoro-5-methyl-6-oxo-6,7,8,9-tetrahydro-5H-pyrimido[4,5-b][1,4]diazepin-2-ylamino)-3-methoxy-benzamide] returned an IC50 (ATP) of 0.001 to 0.05 µM. Still for that read-out and setting: next, `COc1cc(C(=O)NC2CN(C)C2)ccc1Nc1ncc2c(n1)N(C1CCCC1)CC(F)(F)C(=O)N2C` [Example I-99, 4-(9-cyclopentyl-7,7-difluoro-5-methyl-6-oxo-6,7,8,9-tetrahydro-5H-pyrimido[4,5-b][1,4]diazepin-2-ylamino)-3-methoxy-N-(1-methyl-azetidin-3-yl)-benzamide]: 0.001 to 0.05 µM.
